Tested on: FLuc in U937 human macrophage
Test: Luciferase silencing on non-adherent macrophage suspension
Assay type: cell-based
Settings: 10-50 nM siRNA without CPP
Protocol: FIG. 15: Evaluation of CPP1:siRNA and CPP2:siRNA PBNs activity on cell suspensions. […] Incubation conditions: 10,000 cells/well, CPP:siRNA ratio=20:1 at the indicated siRNA concentration, incubation time 1.5 h in serum-free medium. Normalization of FLuc/NLuc values to the condition of untreated cells (N.T.). Abbreviations: siSCR=scrambled siRNA, siFLuc=firefly luciferase specific siRNA. n=2 independent experiments in triplicates. […] Incubation conditions: 10,000 cells/well, CPP:siRNA ratio=20:1 at the indicated siRNA concentration, incubation time 1.5 h in medium containing 10% serum. Normalization of FLuc/NLuc values to the condition of untreated cells (N.T.). Abbreviations: siSCR=scrambled siRNA, siFLuc=firefly luciferase specific siRNA. n=2 independent experiments in triplicates. […] Incubation conditions: 10,000 cells/well, CPP:siRNA ratio=20:1 at the indicated siRNA concentration (or the siRNA alone), incubation time 1.5 h in serum-free medium. Normalization of FLuc values to the condition of untreated cells (N.T.). n=2 independent experiments in triplicates. Next, the transfection potential of the CPP2:siFLuc on non-adherent cells such as the firefly luciferase stably transfected U937 human macrophage was evaluated (FIG. 15C). […] The silencing efficiency was determined with 40%, 80% and 100% for the siRNA concentrations of 10 nM, 20 nM and 50 nM, respectively.

## 5′-CUU-ACG-CUG-AGU-ACU-UCG-AdTdT-3′ [siFLuc]
  Knock-down efficiency of siRNA alone: did not shown any knock-down efficiency
